{"source": "patent US20200237793A1", "about": "“IMMUNOMODULATORY OLIGOSACCHARIDES” (The Regents of the University of California, priority 2017, published 2020)", "key": {"[1]": {"tested_on": "bone marrow derived macrophages", "assay": "Pro-inflammatory cytokine expression in primary mouse cells", "format": "cell-based", "text": "(§1) Accordingly, the results with 3′SL translate to primary cells as well as to human macrophages."}, "[2]": {"tested_on": "THP-1 monocytic cell line", "assay": "Pro-inflammatory cytokine expression in human monocytic cell line", "format": "cell-based", "settings": "human THP-1", "text": "as §1"}, "RAW 264.7 cells": {"tested_on": "RAW 264.7 cells", "assay": "Pro-inflammatory cytokine mRNA expression (RT-PCR) in LPS-stimulated macrophages", "format": "cell-based, murine", "procedure": "RAW246.7 cells were exposed to LPS either alone or in combination with either pooled human milk oligosaccharides (HMOs), or 3′-sialyllactose (3′SL) or 2′-fucosyllactose (2′FL). After 6 hours, IL-6 (A) and IL-1β (B) mRNA levels were measured by RT-PCR and are plotted as mean±standard deviation (n=8) relative the respective mRNA levels in cells that were exposed to LPS alone (**p<0.01; ***p<0.001). HMOs are a group of more than 150 different structurally distinct oligosaccharides and their composition follows a basic structural blueprint (C), containing five monosaccharide building blocks: glucose (dark gray circle), galactose (light gray circle), N-acetylglucosamine (dark gray square), fucose (gray triangle) and sialic acid (gray diamond). 3′SL contains lactose with sialic acid at the terminal end; 2′FL contains lactose with fucose at the terminal end.\nHMOs were first isolated and purified from pooled human donor milk (pHMO) by using polymixin B affinity chromatography to remove any lipopolysaccharide (LPS) contamination. RAW 264.7 cells, a murine macrophage cell line, were then incubated with LPS (10 ng/mL) and pHMO (500 μg/mL) for 6 hours. RT-PCR was used to measure cytokine mRNA expression.\nA multi-dimensional chromatography approach was used that separates pHMO first by charge and then by size. […]"}, "[3]": {"tested_on": "collagen antibody-induced arthritis (CAIA) model", "assay": "Collagen antibody-induced arthritis (CAIA) model", "format": "in vivo, BALB/c mice", "procedure": "Macrophages and the pro-inflammatory cytokines IL-6 and IL-1β are known to perform a major role in the development and progression of joint destruction in animal models and patients with RA. […] Next, it was asked whether or not the in vitro results translate to an in vivo model. 3′SL efficacy in a collagen antibody-induced arthritis (CAIA) model was tested in mice. In the CAIA model, arthritis is induced by systemic administration of a cocktail of monoclonal antibodies that target various regions of collagen type II, which is one of the major constituents of articular cartilage matrix proteins, followed by the administration of endotoxin (LPS) on day 3. The high uptake rate in the CAIA model and the capacity to synchronize the development of arthritis from the time of antibody injection, makes this a relatively straightforward model that is used to address questions of pathogenic mechanisms and to screen candidate therapeutic agents.\n8-week old female BALB/c mice were injected with 1.5 mg of Arthrogen-CIA monoclonal antibody cocktail (Chondrex, Inc.). Three days later, the mice were injected with 25 μg of LPS. Beginning with the time of LPS administration and followed for the next 11 consecutive days, mice were orally gavaged thrice daily with either 3′SL (20 mg in saline) or saline alone as control. With the tester blinded to the study groups, arthritis in each limb was determined once per day. […] By adding together, the scores of all four limbs, the maximum score per mouse is 28. In addition, a caliper was placed across the ankle joint at the widest point to measure ankle thickness in both hind limbs daily. 14 days after antibody cocktail administration, mice were euthanized and hind paws collected and processed for histology. H&E—as well as Toluidine blue-stained sections were scored from 0 to 4 for inflammation, bone erosion and cartilage depletion based on a previously validated scoring system."}, "[4]": {"settings": "hind paws, day 14, score 0 to 4, oral 20 mg thrice daily"}, "[5]": {"settings": "oral gavage 20 mg in saline thrice daily, from LPS administration, vs saline"}}, "data": [{"molecule": "CC(=O)N[C@H]1[C@H]([C@H](O)[C@H](O)CO)O[C@@](O[C@H]2[C@@H](O)[C@@H](CO)O[C@@H](O[C@H]3[C@H](O)[C@@H](O)C(O)O[C@@H]3CO)[C@@H]2O)(C(=O)O)C[C@@H]1O", "note": "(stereo partly shown) [3′SL, 3′-sialyllactose]", "values": [{"measurement": "pro-inflammatory cytokine expression", "setting": "[1]", "value": "reduced"}, {"measurement": "pro-inflammatory cytokine expression", "setting": "[2]", "value": "reduced"}, {"measurement": "IL-6 and IL-1β mRNA expression", "setting": "RAW 264.7 cells; LPS-activated macrophages, individual oligosaccharides", "value": "most effective in reducing"}, {"measurement": "IC50 (reducing IL-6 and IL-1β mRNA expression)", "setting": "RAW 264.7 cells; dose-range finding studies", "value": "around 15 μg/mL"}, {"measurement": "adverse effects", "setting": "[3]; 14-day study period, oral 20 mg thrice daily", "value": "No adverse effects were observed"}, {"measurement": "histology score for cartilage damage", "setting": "[3]; [4]", "value": "significantly lower"}, {"measurement": "histology score for erosion", "setting": "[3]; [4]", "value": "significantly lower"}, {"measurement": "histology score for inflammation", "setting": "[3]; [4]", "value": "significantly lower"}, {"measurement": "Baseline-corrected ankle thickness (paw swelling)", "setting": "[3]; [5]", "value": "significantly reduced"}, {"measurement": "clinical index score 28", "setting": "[3]; [5]", "value": "significantly reduced"}]}]}
